From US7838674B2, “Tetracyclic lactame derivatives” (Novartis AG, priority 2007, dated 2010)
Where a name gives a salt, the structure may show the parent alone.

Columns and labels:
human MK2 = human MK2 (Homo sapiens, UniProt P49137); test: MAPKAPK2 kinase assay (TR-FRET, Hsp27 peptide substrate)
[1] = molecular target: T1, MAPKAPK2 enzyme (HIS-MK2, Invitrogen PV4019) (Homo sapiens, UniProt P49137); test: Alternative MAPKAPK2 assay (Caliper microfluidic mobility shift, HSP27-peptide); type: biochemical; details: HIS-MK2 0.013 nM, ATP 10 μM, 60 min at 30° C.
T1 construct: His; purchased Invitrogen PV4019
T1 sequence (P49137 whole entry): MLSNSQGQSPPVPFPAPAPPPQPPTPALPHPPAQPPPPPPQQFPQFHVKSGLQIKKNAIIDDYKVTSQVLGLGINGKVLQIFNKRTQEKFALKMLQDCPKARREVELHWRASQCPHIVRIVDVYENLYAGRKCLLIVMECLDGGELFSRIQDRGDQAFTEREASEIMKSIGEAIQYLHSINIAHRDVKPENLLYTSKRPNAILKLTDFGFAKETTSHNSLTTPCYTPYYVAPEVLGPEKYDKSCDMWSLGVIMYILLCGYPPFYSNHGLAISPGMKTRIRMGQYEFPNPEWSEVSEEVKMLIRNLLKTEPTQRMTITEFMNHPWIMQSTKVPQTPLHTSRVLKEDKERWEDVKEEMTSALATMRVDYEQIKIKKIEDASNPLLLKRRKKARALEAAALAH

Chain of human MK2 (P49137 whole entry): as above

Row | SMILES | IC50 (human MK2) | IC50 [1]
1 | C[C@H](NC(=O)c1cccc(-c2cc3c(cn2)CCc2c-3[nH]c3c2C(=O)NC2(CC2)C3)c1)c1ccccc1 [Example 275] | 20 nM | –
2 | O=C1NC2(CCC2)Cc2[nH]c3c(c21)CCc1cnc(-c2cncc(OC4CCOCC4)c2)cc1-3 [Example 109, 2-(1-Amino-cyclobutylmethyl)-8-[5-(tetrahydro-pyran-4-yloxy)-pyridin-3-yl]-4,5-dihydro-1H-pyrrolo[2,3-f]isoquinoline-3-carboxylic acid lactam] | 42 nM | –
3 | COCCOc1cncc(-c2cc3c(cn2)CCc2c-3[nH]c3c2C(=O)NC2(CCC2)C3)c1 [Example 3, 2-(1-Amino-cyclobutylmethyl)-8-[5-(2-methoxy-ethoxy)-pyridin-3-yl]-4,5-dihydro-1H-pyrrolo[2,3-f]isoquinoline-3-carboxylic acid lactame] | 63 nM | –
4 | O=C1NCC2(CC2)c2[nH]c3c(c21)CCc1cnc(/C=C/c2ccccc2)cc1-3 [Example 2, 2-(1-Aminomethyl-cyclopropyl)-8-((E)-styryl)-4,5-dihydro-1H-pyrrolo[2,3-f]isoquinoline-3-carboxylic acid lactame] | 21 nM | –
5 | COCCOc1cc(-c2cc3c(cn2)CCc2c-3[nH]c3c2C(=O)NCC32CC2)ccc1F [Example 310, 2-[4-Fluoro-3-(2-methoxy-ethoxy)-phenyl]-10-spirocyclopropyl-5,6,8,9,10,11-hexahydro-3,8,11-triaza-benzo[a]fluoren-7-one] | 97 nM | –
6 | CCOc1ccc(-c2cc3c(cn2)CCc2c-3[nH]c3c2C(=O)NC2(CC2)C3)cn1 [Example 90, 2-(1-Amino-cyclopropylmethyl)-8-(6-ethoxy-pyridin-3-yl)-4,5-dihydro-1H-pyrrolo[2,3-f]isoquinoline-3-carboxylic acid lactam] | 91 nM | –
7 | O=C1NCC2(CNC2)c2[nH]c3c(c21)CCc1cnc(-c2ccc(C(F)(F)F)nc2)cc1-3 [Example 166, 2-(3-Aminomethyl-azetidin-3-yl)-8-(6-trifluoromethyl-pyridin-3-yl)-4,5-dihydro-1H-pyrrolo[2,3-f]isoquinoline-3-carboxylic acid lactam hydrochloride] | 7 nM | –
8 | COc1ccc(-c2cc3c(cn2)CCc2c-3[nH]c3c2C(=O)NC2(CC2)C32CN(C)C2)cc1 [Example 225, 2-[3-(1-Amino-cyclopropyl)-1-methyl-azetidin-3-yl]-8-(4-methoxyphenyl)-4,5-dihydro-1H-pyrrolo[2,3-f]isoquinoline-3-carboxylic acid lactam] | – | < 3 nM
9 | CN1CC2(C1)c1[nH]c3c(c1C(=O)NC21CC1)CCc1cnc(-c2cccc(F)c2)nc1-3 [Example 213, 2-[3-(1-Amino-cyclopropyl)-1-methyl-azetidin-3-yl]-8-(3-fluoro-phenyl)-4,5-dihydro-1H-1,7,9-triaza-cyclopenta[a]naphthalene-3-carboxylic acid lactam] | – | 19 nM
10 | Cn1c2c(c3c1-c1nc(-c4cncc(C(=O)NCc5ccccc5)c4)ncc1CC3)C(=O)NC1(CNC1)C2 [Example 296, 2-(3-Amino-azetidin-3-ylmethyl)-8-(3-benzylcarbamoyl-3-pyridyl)-1-methyl-4,5-dihydro-1H-1,7,9-triaza-cyclopenta[a]naphthalene-3-carboxylic acid lactam hydrochloride] | – | 17 nM
11 | O=C1NCC2(CNC2)c2[nH]c3c(c21)CCc1cnc(-c2ccc(F)nc2F)cc1-3 [Example 205, 2-(3-Aminomethyl-azetidin-3-yl)-8-(2,6-difluoro-pyridin-3-yl)-4,5-dihydro-1H-pyrrolo[2,3-f]isoquinoline-3-carboxylic acid lactam hydrochloride] | – | < 3 nM
12 | CC(=O)OCc1ccc(-c2cc3c(cn2)CCc2c-3[nH]c3c2C(=O)NC2(CC2)C3)cn1 [Example 244, 8-(6-Acetoxymethyl-pyridin-3-yl)-2-(1-amino-cyclopropylmethyl)-4,5-dihydro-1H-pyrrolo[2,3-f]isoquinoline-3-carboxylic acid lactam] | – | 43 nM
13 | CC(C)Oc1ccc(-c2cc3c(cn2)CCc2c4c(n(C)c2-3)C2(CNC2)CNC4=O)cn1 [Example 184, 2-(3-Aminomethyl-azetidin-3-yl)-8-(6-isopropoxy-pyridin-3-yl)-1-methyl-4,5-dihydro-1H-pyrrolo[2,3-f]isoquinoline-3-carboxylic acid lactam hydrochloride] | – | 9 nM
14 | COc1ccc(-c2cc3c(cn2)CCc2c4c(n(C)c2-3)CC2(CNC2)NC4=O)cc1OC [Example 144, 2-3-Amino-azetidin-3-ylmethyl)-8-(3,4-dimethoxy-phenyl)-1-methyl-4,5-dihydro-1H-pyrrolo[2,3-f]isoquinoline-3-carboxylic acid lactam hydrochloride] | – | 58 nM
15 | CC(=O)N1CCN(c2ccc(-c3cc4c(cn3)CCc3c-4[nH]c4c3C(=O)NCC43CC3)cc2C#N)CC1 [Example 313, 2-(4-Acetyl-piperazin-1-yl)-10-spirocyclopropyl-5-(7-oxo-6,7,8,9,10,11-hexahydro-5H-3,8,11-triaza-benzo[a]fluoren-2-yl)-benzonitrile] | – | 8 nM
16 | Cn1c2c(c3c1-c1cc(-c4cccnc4)ncc1CC3)C(=O)NC1(CNC1)C2 [Example 153, 2-(3-Amino-azetidin-3-ylmethyl)-8-(pyridin-3-yl)-1-methyl-4,5-dihydro-1H-pyrrolo[2,3-f]isoquinoline-3-carboxylic acid lactam hydrochloride] | – | 17 nM
17 | COc1cncc(-c2cc3c(cn2)CCc2c4c(n(C)c2-3)CC2(CNC2)NC4=O)c1 [Example 140, 2-(3-Amino-azetidin-3-ylmethyl)-8-(5-methoxy-pyridin-3-yl)-1-methyl-4,5-dihydro-1H-pyrrolo[2,3-f]isoquinoline-3-carboxylic acid lactam hydrochloride] | – | 12 nM
18 | CN1CC2(C1)c1c(c3c(n1C)-c1cc(-c4cccc(F)c4)ncc1CC3)C(=O)NC21CC1 [Example 210, 2-[3-(1-Amino-cyclopropyl)-1-methyl-azetidin-3-yl]-8-(3-fluoro-phenyl)-1-methyl-4,5-dihydro-1H-pyrrolo[2,3-f]isoquinoline-3-carboxylic acid lactam] | – | 45 nM
19 | O=C1NCC2(CNC2)c2[nH]c3c(c21)CCc1cnc(-c2ccc(CN4CCOCC4)c(F)c2)nc1-3 [Example 326, 2-(3-Aminomethyl-azetidin-3-yl)-8-(3-fluoro-4-morpholin-4-ylmethyl-phenyl)-4,5-dihydro-1H-1,7,9-triaza-cyclopenta[a]naphthalene-3-carboxylic acid lactam] | – | 15 nM
20 | Cc1ccc(-c2cc3c(cn2)CCc2c-3[nH]c3c2C(=O)NC2(CC2)C32CC2)cn1 [Example 193, 2-(1′-Amino-bicyclopropyl-1-yl)-8-(6-methyl-pyridin-3-yl)-4,5-dihydro-1H-pyrrolo[2,3-f]isoquinoline-3-carboxylic acid lactam] | – | 12 nM
21 | COc1ccc(-c2cc3c(cn2)CCc2c-3[nH]c3c2C(=O)NCC32CNC2)cc1 [Example 165, 2-(3-Aminomethyl-azetidin-3-yl)-8-(4-methoxy-phenyl)-4,5-dihydro-1H-pyrrolo[2,3-f]isoquinoline-3-carboxylic acid lactam hydrochloride] | – | < 3 nM
22 | CN(C)c1ccc(-c2cc3c(cn2)CCc2c-3[nH]c3c2C(=O)NC2(CC2)C3)cn1 [Example 68, 2-(1-Amino-cyclopropylmethyl)-8-6-dimethylamino-pyridin-3-yl-4,5-dihydro-1H-pyrrolo[2,3-f]isoquinoline-3-carboxylic acid lactam] | – | 49 nM
